Measurements from patent US11040981B2, “Pyrrolotriazine compounds and methods of inhibiting TAM kinases” (Syros Pharmaceuticals, Inc., priority 2017, dated 2021).

Key:
[1] = biological target: T1, TYRO3 (Homo sapiens, UniProt Q06418); assay: TR-FRET kinase activity assay, TYRO3; type: biochemical; details: ATP at Km, 60 minutes
T1 sequence (Q06418 41-890): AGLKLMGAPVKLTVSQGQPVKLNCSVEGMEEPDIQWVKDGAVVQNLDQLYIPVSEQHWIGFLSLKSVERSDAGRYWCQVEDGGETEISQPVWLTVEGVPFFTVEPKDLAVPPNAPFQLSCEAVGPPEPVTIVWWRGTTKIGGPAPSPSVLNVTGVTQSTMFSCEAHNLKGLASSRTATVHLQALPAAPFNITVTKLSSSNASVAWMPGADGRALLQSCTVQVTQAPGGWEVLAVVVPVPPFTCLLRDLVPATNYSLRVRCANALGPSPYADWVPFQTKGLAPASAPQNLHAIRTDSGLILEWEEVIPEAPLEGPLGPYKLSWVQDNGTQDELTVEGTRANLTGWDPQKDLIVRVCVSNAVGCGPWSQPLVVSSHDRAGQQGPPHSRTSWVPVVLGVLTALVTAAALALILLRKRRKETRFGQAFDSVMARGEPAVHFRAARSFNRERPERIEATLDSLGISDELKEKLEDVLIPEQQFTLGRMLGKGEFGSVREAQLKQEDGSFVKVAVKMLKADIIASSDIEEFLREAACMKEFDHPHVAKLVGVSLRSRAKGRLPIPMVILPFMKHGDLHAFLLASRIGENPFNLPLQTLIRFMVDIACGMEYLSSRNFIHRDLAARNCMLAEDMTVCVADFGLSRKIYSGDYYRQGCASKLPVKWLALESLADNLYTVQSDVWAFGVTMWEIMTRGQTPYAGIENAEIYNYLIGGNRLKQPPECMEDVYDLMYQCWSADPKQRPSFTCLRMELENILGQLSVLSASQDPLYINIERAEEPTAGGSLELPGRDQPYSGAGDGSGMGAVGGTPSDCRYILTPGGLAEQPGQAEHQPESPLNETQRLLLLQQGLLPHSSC
In short: (§1)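 Compounds were tested against each kinase with ATP set at its own Km and a labelled tyrosine peptide substrate. Following one hour at room temperature in buffer containing 10 mM MgCl2 and 1 mM DTT, phosphorylated product was detected by Europium antibody TR-FRET after EDTA quench, and IC50 values were calculated.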

[2] = biological target: T2, AXL (Homo sapiens, UniProt P30530); assay: TR-FRET kinase activity assay, AXL; type: biochemical; details: ATP at Km, 60 minutes
T2 sequence (P30530 26-894): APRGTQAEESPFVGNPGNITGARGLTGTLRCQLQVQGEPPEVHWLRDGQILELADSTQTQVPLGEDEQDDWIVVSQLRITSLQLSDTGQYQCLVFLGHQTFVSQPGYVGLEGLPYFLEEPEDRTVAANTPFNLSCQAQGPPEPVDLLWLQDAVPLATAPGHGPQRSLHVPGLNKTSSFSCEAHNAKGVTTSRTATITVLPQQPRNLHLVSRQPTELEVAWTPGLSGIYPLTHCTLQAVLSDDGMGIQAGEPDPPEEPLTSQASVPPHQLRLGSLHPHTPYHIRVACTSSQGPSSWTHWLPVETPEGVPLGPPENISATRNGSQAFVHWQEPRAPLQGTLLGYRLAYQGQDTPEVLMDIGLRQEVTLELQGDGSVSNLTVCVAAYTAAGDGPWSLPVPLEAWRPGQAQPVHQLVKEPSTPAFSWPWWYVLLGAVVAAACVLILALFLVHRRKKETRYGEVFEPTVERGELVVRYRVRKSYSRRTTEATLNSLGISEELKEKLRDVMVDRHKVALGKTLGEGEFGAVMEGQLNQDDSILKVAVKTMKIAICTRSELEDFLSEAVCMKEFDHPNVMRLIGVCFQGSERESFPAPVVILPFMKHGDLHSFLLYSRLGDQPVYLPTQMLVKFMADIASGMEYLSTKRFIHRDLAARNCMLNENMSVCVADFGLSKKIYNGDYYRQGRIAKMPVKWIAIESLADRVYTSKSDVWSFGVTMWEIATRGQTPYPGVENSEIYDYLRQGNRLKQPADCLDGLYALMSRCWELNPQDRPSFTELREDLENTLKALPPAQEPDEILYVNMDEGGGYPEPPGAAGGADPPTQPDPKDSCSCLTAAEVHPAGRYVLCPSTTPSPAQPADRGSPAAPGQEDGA
In short: as §1

Structure (SMILES) | IC50 [1] | IC50 [2]
COC[C@H](C)Nc1ncc2c(-c3cnn([C@H]4CCNC4=O)c3)cc([C@H]3CC[C@H](O)CC3)n2n1 [Compound 348] | ≤ 100 nM | ≤ 100 nM
COC[C@H](C)Nc1ncc2c(-c3cnn([C@H]4CCC(C(=O)OC(C)(C)C)C4)c3)cc([C@H]3CC[C@H](O)CC3)n2n1 (stereo partly drawn) [Compound 365] | ≤ 100 nM | ≤ 100 nM
CC[C@H](C)Nc1ncc2c(-c3cncc(S(C)(=O)=O)c3)cc([C@H]3CC[C@@H](O)CC3)n2n1 [Compound 120] | ≤ 100 nM | 100 to 1000 nM
COC[C@H](C)Nc1ncc2c(-c3ccnc(OC4COC4)c3)cc([C@H]3CC[C@H](O)CC3)n2n1 [Compound 358] | ≤ 100 nM | ≤ 100 nM
O[C@H]1CC[C@H](c2cc(-c3ccnc(N4CCOCC4)c3)c3cnc(NCCC(F)(F)F)nn32)CC1 [Compound 363] | ≤ 100 nM | ≤ 100 nM
OC1CCC(c2cc(-c3ccnc(N4CCOCC4)c3)c3cnc(NCCC4CC4)nn23)CC1 (stereo not drawn) [Compound 359] | ≤ 100 nM | ≤ 100 nM
CCC(C)Nc1ncc2c(C)cc(C3CCC(O)CC3)n2n1 (stereo not drawn) [Compound 123] | 100 to 1000 nM | 1000 to 10000 nM
CNS(=O)(=O)c1ccc(-c2cc([C@H]3CC[C@H](O)CC3)n3nc(N[C@@H](C)CC(F)(F)F)ncc23)cn1 [Compound 360] | ≤ 100 nM | ≤ 100 nM
COC[C@H](C)Nc1ncc2c(-c3cc([C@H]4CC[C@H](O)CC4)n4nc(N[C@@H](C)COC)ncc34)cc([C@H]3CC[C@H](O)CC3)n2n1 [Compound 349] | ≤ 100 nM | 1000 to 10000 nM

More lines, now with the values ahead:

IC50 [1] | IC50 [2] | Structure (SMILES)
≤ 100 nM | ≤ 100 nM | COC[C@H](C)Nc1ncc2c(-c3cnn(CS(C)(=O)=O)c3)cc([C@H]3CC[C@H](O)CC3)n2n1 [Compound 419]
≤ 100 nM | ≤ 100 nM | CNC(=O)c1cncc(-c2cc([C@H]3CC[C@H](O)CC3)n3nc(N[C@@H](C)COC(F)F)ncc23)c1 [Compound 398]
≤ 100 nM | ≤ 100 nM | CC(=O)N1CCN(Cc2ccc(-c3cc(C4CCC(O)CC4)n4nc(NC(C)CC(F)(F)F)ncc34)cc2)CC1 (stereo not drawn) [Compound 370]
≤ 100 nM | 100 to 1000 nM | COC[C@H](C)Nc1ncc2c([C@@H]3CCN(S(C)(=O)=O)C3)cc([C@H]3CC[C@H](O)CC3)n2n1 [Compound 375]
≤ 100 nM | ≤ 100 nM | CNC(=O)c1cc(-c2cc([C@H]3CC[C@H](O)CC3)n3nc(N[C@@H](C)CC(F)(F)F)ncc23)ccn1 [Compound 384]
≤ 100 nM | ≤ 100 nM | COC[C@H](C)Nc1ncc2c(-c3cnn(CC4CCCO4)c3)cc([C@H]3CC[C@H](O)CC3)n2n1 (stereo partly drawn) [Compound 380]
100 to 1000 nM | 1000 to 10000 nM | COCC(C)Nc1ncc2c(C3CCCN(C(C)=O)C3)cc(C3CCC(O)CC3)n2n1 (stereo not drawn) [Compound 371]
≤ 100 nM | ≤ 100 nM | COC[C@H](C)Nc1ncc2c(-c3cnn(C4CCN(C)C4=O)c3)cc([C@H]3CC[C@H](O)CC3)n2n1 (stereo partly drawn) [Compound 394, 3-(4-(7-((trans)-4-hydroxycyclohexyl)-2-(((S)-1-methoxypropan-2-yl)amino)pyrrolo[2,1-f][1,2,4]triazin-5-yl)-1H-pyrazol-1-yl)-1-methylpyrrolidin-2-one]
≤ 100 nM | ≤ 100 nM | COC[C@H](C)Nc1ncc2c(-c3cnn([C@H]4CCN(C(C)=O)C4)c3)cc([C@H]3CC[C@H](O)CC3)n2n1 [Compound 397]
